Assay results from US10131652B2, “Pyrimidinyloxy benzene derivatives as herbicides” (E. I. DU PONT DE NEMOURS AND COMPANY, priority 2014, dated 2018).

Assays:
Assay in all cases: Test F pre-/postemergence plant response
Type in all cases: in vivo
Details in all cases: scale 0 to 100
[1] = tested on: morningglory (Ipomoea coccinea)
How it was run: (§1)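 Two application timings were run side by side: soil surface treatment of freshly planted seed in silt loam, and foliar treatment of seedlings 2 to 18 cm high. Plants stayed in the greenhouse 14 to 21 days before visual 0–100 injury scoring against controls.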

[2] = tested on: johnsongrass (Sorghum halepense)
How it was run: as §1

[3] = tested on: barnyardgrass (Echinochloa crus-galli)
How it was run: as §1

[4] = tested on: field bindweed (Convolvulus arvensis)
How it was run: as §1

[5] = tested on: hairy beggarticks (Bidens pilosa)
How it was run: as §1

[6] = tested on: waterhemp (common waterhemp, Amaranthus rudis)
How it was run: as §1

[7] = tested on: velvetleaf (Abutilon theophrasti)
How it was run: as §1

[8] = tested on: dayflower (Virginia (VA) dayflower, Commelina virginica)
How it was run: as §1

[9] = tested on: giant foxtail (Setaria faberii)
How it was run: as §1

[10] = tested on: ragweed (common ragweed, Ambrosia elatior)
How it was run: as §1

[11] = tested on: yellow nutsedge (Cyperus esculentus)
How it was run: as §1

CC(F)(F)c1cc(-c2ccccc2Oc2ncc(Br)cn2)no1 [Compound 149]
95: Plant response rating, Waterhemp ([6]; 31 g ai/ha Postemergence) | Plant response rating, Waterhemp ([6]; 62 g ai/ha Postemergence)
25: Plant response rating, Field Bindweed ([4]; 125 g ai/ha Preemergence) | Plant response rating, Ragweed ([10]; 31 g ai/ha Preemergence)
0: Plant response rating, Morningglory ([1]; 16 g ai/ha Preemergence) | Plant response rating, Morningglory ([1]; 31 g ai/ha Preemergence) | Plant response rating, Morningglory ([1]; Preemergence) | Plant response rating, Johnsongrass ([2]; 16 g ai/ha Preemergence) | Plant response rating, Johnsongrass ([2]; 31 g ai/ha Preemergence) | Plant response rating, Johnsongrass ([2]; Preemergence) | Plant response rating, Barnyardgrass ([3]; 16 g ai/ha Postemergence) | Plant response rating, Barnyardgrass ([3]; 16 g ai/ha Preemergence) | Plant response rating, Barnyardgrass ([3]; 31 g ai/ha Preemergence) | Plant response rating, Field Bindweed ([4]; 16 g ai/ha Preemergence) | Plant response rating, Beggarticks ([5]; 16 g ai/ha Preemergence) | Plant response rating, Beggarticks ([5]; 31 g ai/ha Preemergence) | Plant response rating, Beggarticks ([5]; 62 g ai/ha Preemergence) | Plant response rating, Beggarticks ([5]; 125 g ai/ha Preemergence) | Plant response rating, Dayflower, VA ([8]; 16 g ai/ha Preemergence) | Plant response rating, Dayflower, VA ([8]; 31 g ai/ha Preemergence) | Plant response rating, Foxtail, Giant ([9]; 16 g ai/ha Preemergence) | Plant response rating, Nutsedge, Yellow ([11]; 16 g ai/ha Preemergence) | Plant response rating, Nutsedge, Yellow ([11]; 31 g ai/ha Preemergence) | Plant response rating, Nutsedge, Yellow ([11]; Preemergence)
20: Plant response rating, Dayflower, VA ([8]; 31 g ai/ha Postemergence) | Plant response rating, Foxtail, Giant ([9]; 31 g ai/ha Preemergence) | Plant response rating, Ragweed ([10]; 16 g ai/ha Preemergence) | Plant response rating, Ragweed ([10]; 125 g ai/ha Preemergence)
40: Plant response rating, Beggarticks ([5]; 62 g ai/ha Postemergence) | Plant response rating, Dayflower, VA ([8]; 62 g ai/ha Postemergence) | Plant response rating, Dayflower, VA ([8]; 125 g ai/ha Preemergence) | Plant response rating, Foxtail, Giant ([9]; 62 g ai/ha Preemergence) | Plant response rating, Ragweed ([10]; 31 g ai/ha Postemergence)
70: Plant response rating, Velvetleaf ([7]; 31 g ai/ha Preemergence)
60: Plant response rating, Field Bindweed ([4]; 16 g ai/ha Postemergence)
15: Plant response rating, Johnsongrass ([2]; 125 g ai/ha Preemergence) | Plant response rating, Barnyardgrass ([3]; 62 g ai/ha Preemergence) | Plant response rating, Nutsedge, Yellow ([11]; 125 g ai/ha Preemergence)
50: Plant response rating, Field Bindweed ([4]; 31 g ai/ha Postemergence) | Plant response rating, Field Bindweed ([4]; 31 g ai/ha Preemergence) | Plant response rating, Field Bindweed ([4]; 62 g ai/ha Postemergence) | Plant response rating, Beggarticks ([5]; 125 g ai/ha Postemergence) | Plant response rating, Dayflower, VA ([8]; 125 g ai/ha Postemergence)
75: Plant response rating, Field Bindweed ([4]; 125 g ai/ha Postemergence)
30: Plant response rating, Beggarticks ([5]; 31 g ai/ha Postemergence) | Plant response rating, Ragweed ([10]; 62 g ai/ha Postemergence)
100: Plant response rating, Waterhemp ([6]; 31 g ai/ha Preemergence) | Plant response rating, Waterhemp ([6]; 125 g ai/ha Preemergence) | Plant response rating, Waterhemp ([6]; Preemergence) | Plant response rating, Velvetleaf ([7]; 125 g ai/ha Preemergence)
5: Plant response rating, Barnyardgrass ([3]; 31 g ai/ha Postemergence) | Plant response rating, Beggarticks ([5]; 16 g ai/ha Postemergence) | Plant response rating, Dayflower, VA ([8]; 62 g ai/ha Preemergence)
35: Plant response rating, Barnyardgrass ([3]; 125 g ai/ha Preemergence) | Plant response rating, Field Bindweed ([4]; 62 g ai/ha Preemergence) | Plant response rating, Waterhemp ([6]; 16 g ai/ha Preemergence) | Plant response rating, Ragweed ([10]; 125 g ai/ha Postemergence) | Plant response rating, Ragweed ([10]; Preemergence)
85: Plant response rating, Waterhemp ([6]; 16 g ai/ha Postemergence) | Plant response rating, Velvetleaf ([7]; Preemergence) | Plant response rating, Foxtail, Giant ([9]; 125 g ai/ha Preemergence)
10: Plant response rating, Morningglory ([1]; 125 g ai/ha Preemergence) | Plant response rating, Barnyardgrass ([3]; 62 g ai/ha Postemergence) | Plant response rating, Barnyardgrass ([3]; 125 g ai/ha Postemergence) | Plant response rating, Velvetleaf ([7]; 16 g ai/ha Preemergence) | Plant response rating, Dayflower, VA ([8]; 16 g ai/ha Postemergence) | Plant response rating, Ragweed ([10]; 16 g ai/ha Postemergence)
98: Plant response rating, Waterhemp ([6]; 125 g ai/ha Postemergence)

FC(F)c1cc(-c2c(Cl)cccc2Oc2ncc(Cl)cn2)no1 [Compound 179]
85: Plant response rating, Dayflower, VA ([8]; 125 g ai/ha Preemergence)
15: Plant response rating, Field Bindweed ([4]; 16 g ai/ha Postemergence) | Plant response rating, Velvetleaf ([7]; 16 g ai/ha Preemergence)
20: Plant response rating, Beggarticks ([5]; 16 g ai/ha Postemergence) | Plant response rating, Foxtail, Giant ([9]; 125 g ai/ha Preemergence)
100: Plant response rating, Waterhemp ([6]; 125 g ai/ha Postemergence) | Plant response rating, Waterhemp ([6]; 125 g ai/ha Preemergence) | Plant response rating, Waterhemp ([6]; Preemergence) | Plant response rating, Velvetleaf ([7]; 125 g ai/ha Preemergence)
40: Plant response rating, Beggarticks ([5]; 62 g ai/ha Postemergence) | Plant response rating, Ragweed ([10]; 31 g ai/ha Postemergence) | Plant response rating, Ragweed ([10]; 62 g ai/ha Postemergence)
70: Plant response rating, Waterhemp ([6]; 16 g ai/ha Postemergence)
10: Plant response rating, Johnsongrass ([2]; 125 g ai/ha Preemergence) | Plant response rating, Johnsongrass ([2]; Preemergence)
50: Plant response rating, Field Bindweed ([4]; 125 g ai/ha Postemergence) | Plant response rating, Beggarticks ([5]; 31 g ai/ha Postemergence) | Plant response rating, Beggarticks ([5]; 125 g ai/ha Postemergence) | Plant response rating, Ragweed ([10]; 125 g ai/ha Postemergence)
65: Plant response rating, Velvetleaf ([7]; 31 g ai/ha Preemergence)
5: Plant response rating, Barnyardgrass ([3]; 125 g ai/ha Preemergence)
25: Plant response rating, Morningglory ([1]; 125 g ai/ha Preemergence) | Plant response rating, Field Bindweed ([4]; 31 g ai/ha Postemergence)
35: Plant response rating, Morningglory ([1]; Preemergence) | Plant response rating, Field Bindweed ([4]; 62 g ai/ha Postemergence) | Plant response rating, Dayflower, VA ([8]; 62 g ai/ha Preemergence)
45: Plant response rating, Ragweed ([10]; 16 g ai/ha Postemergence)
90: Plant response rating, Velvetleaf ([7]; Preemergence)
0: Plant response rating, Morningglory ([1]; 16 g ai/ha Preemergence) | Plant response rating, Morningglory ([1]; 31 g ai/ha Preemergence) | Plant response rating, Johnsongrass ([2]; 16 g ai/ha Preemergence) | Plant response rating, Johnsongrass ([2]; 31 g ai/ha Preemergence) | Plant response rating, Barnyardgrass ([3]; 16 g ai/ha Postemergence) | Plant response rating, Barnyardgrass ([3]; 16 g ai/ha Preemergence) | Plant response rating, Barnyardgrass ([3]; 31 g ai/ha Postemergence) | Plant response rating, Barnyardgrass ([3]; 31 g ai/ha Preemergence) | Plant response rating, Barnyardgrass ([3]; 62 g ai/ha Postemergence) | Plant response rating, Barnyardgrass ([3]; 62 g ai/ha Preemergence) | Plant response rating, Barnyardgrass ([3]; 125 g ai/ha Postemergence) | Plant response rating, Field Bindweed ([4]; 16 g ai/ha Preemergence) | Plant response rating, Field Bindweed ([4]; 31 g ai/ha Preemergence) | Plant response rating, Field Bindweed ([4]; 62 g ai/ha Preemergence) | Plant response rating, Field Bindweed ([4]; 125 g ai/ha Preemergence) | Plant response rating, Beggarticks ([5]; 16 g ai/ha Preemergence) | Plant response rating, Beggarticks ([5]; 31 g ai/ha Preemergence) | Plant response rating, Beggarticks ([5]; 62 g ai/ha Preemergence) | Plant response rating, Beggarticks ([5]; 125 g ai/ha Preemergence) | Plant response rating, Dayflower, VA ([8]; 16 g ai/ha Preemergence) | Plant response rating, Dayflower, VA ([8]; 31 g ai/ha Preemergence) | Plant response rating, Foxtail, Giant ([9]; 16 g ai/ha Preemergence) | Plant response rating, Foxtail, Giant ([9]; 31 g ai/ha Preemergence) | Plant response rating, Ragweed ([10]; 16 g ai/ha Preemergence) | Plant response rating, Ragweed ([10]; 31 g ai/ha Preemergence) | Plant response rating, Ragweed ([10]; 125 g ai/ha Preemergence) | Plant response rating, Ragweed ([10]; Preemergence) | Plant response rating, Nutsedge, Yellow ([11]; 16 g ai/ha Preemergence) | Plant response rating, Nutsedge, Yellow ([11]; 31 g ai/ha Preemergence) | Plant response rating, Nutsedge, Yellow ([11]; 125 g ai/ha Preemergence) | Plant response rating, Nutsedge, Yellow ([11]; Preemergence)
95: Plant response rating, Waterhemp ([6]; 16 g ai/ha Preemergence) | Plant response rating, Waterhemp ([6]; 31 g ai/ha Postemergence) | Plant response rating, Waterhemp ([6]; 31 g ai/ha Preemergence) | Plant response rating, Waterhemp ([6]; 62 g ai/ha Postemergence)
30: Plant response rating, Foxtail, Giant ([9]; 62 g ai/ha Preemergence)
